Experimental findings from ChEMBL document CHEMBL5620349, “Recent advance of small-molecule drugs for clinical treatment of multiple myeloma” (Eur J Med Chem, 2023) are described below.

Where a name gives a salt, the structure may show the parent alone.

Assay [1] has as its target Beta-2 adrenergic receptor (Homo sapiens, UniProt P07550). Description: Agonist activity at Adrenergic beta2 receptor (unknown origin). It counts as functional.
Assay [2] concerns the target Nuclear factor NF-kappa-B complex (Homo sapiens, UniProt P19838+Q00653+Q04206). Description: Inhibition of NF-kappaB (unknown origin). It is filed as protein-complex assay.
A short description of assay [3]: Inhibition of 20s proteasome beta2 (unknown origin) mediated […] activity. The arrangement: species or system Homo sapiens.
Assay [4] is described as follows: Inhibition of 20s proteasome beta1 (unknown origin) mediated […] activity. The arrangement: species or system Homo sapiens.
Assay [5] relates to Human immunodeficiency virus 2. The experiment in a line: Antiviral activity against HIV-2.
The target in assay [6] is Protein smoothened (Homo sapiens, UniProt Q99835). The experiment in a line: Antagonist activity at human SMO.
Sequence of Protein smoothened (Homo sapiens, UniProt Q99835) (Q99835 whole entry): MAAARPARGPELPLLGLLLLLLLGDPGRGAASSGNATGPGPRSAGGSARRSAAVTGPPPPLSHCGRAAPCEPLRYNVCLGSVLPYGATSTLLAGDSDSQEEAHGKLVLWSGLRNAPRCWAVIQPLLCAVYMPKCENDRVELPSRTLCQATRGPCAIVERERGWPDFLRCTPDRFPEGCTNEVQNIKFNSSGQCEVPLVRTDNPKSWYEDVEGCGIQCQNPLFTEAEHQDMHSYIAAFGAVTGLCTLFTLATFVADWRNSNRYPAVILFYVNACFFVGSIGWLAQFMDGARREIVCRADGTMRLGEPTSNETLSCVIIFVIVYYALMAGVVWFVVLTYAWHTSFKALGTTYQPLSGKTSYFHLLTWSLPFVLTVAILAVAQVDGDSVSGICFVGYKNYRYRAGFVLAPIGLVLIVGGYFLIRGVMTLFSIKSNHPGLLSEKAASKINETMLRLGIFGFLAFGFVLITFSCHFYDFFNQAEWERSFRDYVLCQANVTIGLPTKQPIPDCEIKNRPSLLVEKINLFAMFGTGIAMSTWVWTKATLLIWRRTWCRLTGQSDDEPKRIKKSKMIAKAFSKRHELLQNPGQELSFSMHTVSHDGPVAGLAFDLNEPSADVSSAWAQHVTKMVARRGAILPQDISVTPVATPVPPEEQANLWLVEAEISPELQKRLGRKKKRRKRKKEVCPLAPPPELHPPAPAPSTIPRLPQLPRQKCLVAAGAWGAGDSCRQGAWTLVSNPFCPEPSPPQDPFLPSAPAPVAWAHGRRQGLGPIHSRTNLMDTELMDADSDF
The target in assay [7] is Protein smoothened (Mus musculus, UniProt P56726). The experiment in a line: Antagonist activity at mouse SMO.
Sequence of Protein smoothened (Mus musculus, UniProt P56726) (P56726 whole entry): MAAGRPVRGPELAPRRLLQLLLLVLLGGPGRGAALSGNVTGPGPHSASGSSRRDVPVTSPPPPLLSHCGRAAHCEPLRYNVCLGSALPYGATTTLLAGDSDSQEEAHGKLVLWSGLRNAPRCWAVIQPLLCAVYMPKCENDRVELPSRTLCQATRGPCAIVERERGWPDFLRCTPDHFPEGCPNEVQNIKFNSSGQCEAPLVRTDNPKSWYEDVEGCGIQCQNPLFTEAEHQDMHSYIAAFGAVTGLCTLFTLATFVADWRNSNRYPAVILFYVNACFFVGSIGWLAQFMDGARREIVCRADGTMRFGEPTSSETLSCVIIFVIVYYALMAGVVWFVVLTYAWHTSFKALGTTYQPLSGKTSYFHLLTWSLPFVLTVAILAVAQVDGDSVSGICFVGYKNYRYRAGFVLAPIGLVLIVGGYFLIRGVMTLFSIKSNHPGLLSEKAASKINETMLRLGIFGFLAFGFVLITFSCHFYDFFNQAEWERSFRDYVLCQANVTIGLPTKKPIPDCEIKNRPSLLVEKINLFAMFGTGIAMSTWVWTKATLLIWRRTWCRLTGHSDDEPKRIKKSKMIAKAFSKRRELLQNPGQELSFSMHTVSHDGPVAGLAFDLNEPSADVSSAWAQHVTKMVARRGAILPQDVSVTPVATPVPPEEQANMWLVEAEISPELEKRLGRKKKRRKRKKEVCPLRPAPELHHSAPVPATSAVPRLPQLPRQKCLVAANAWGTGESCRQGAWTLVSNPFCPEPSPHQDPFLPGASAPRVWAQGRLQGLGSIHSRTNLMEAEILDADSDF

Sequence of Nuclear factor NF-kappa-B complex (P19838 1-433 limits assumed): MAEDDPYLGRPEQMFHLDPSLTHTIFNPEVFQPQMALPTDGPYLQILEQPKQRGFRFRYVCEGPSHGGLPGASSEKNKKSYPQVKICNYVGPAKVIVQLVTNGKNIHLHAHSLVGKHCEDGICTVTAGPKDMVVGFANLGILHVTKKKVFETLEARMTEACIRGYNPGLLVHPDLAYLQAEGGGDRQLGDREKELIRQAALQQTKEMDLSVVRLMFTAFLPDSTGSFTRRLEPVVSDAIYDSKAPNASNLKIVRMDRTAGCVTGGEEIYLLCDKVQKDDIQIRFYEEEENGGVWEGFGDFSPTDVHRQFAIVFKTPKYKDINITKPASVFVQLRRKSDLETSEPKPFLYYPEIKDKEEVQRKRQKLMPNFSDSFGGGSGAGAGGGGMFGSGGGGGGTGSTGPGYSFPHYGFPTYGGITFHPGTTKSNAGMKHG
Sequence of Nuclear factor NF-kappa-B complex (Q00653 1-454 limits assumed): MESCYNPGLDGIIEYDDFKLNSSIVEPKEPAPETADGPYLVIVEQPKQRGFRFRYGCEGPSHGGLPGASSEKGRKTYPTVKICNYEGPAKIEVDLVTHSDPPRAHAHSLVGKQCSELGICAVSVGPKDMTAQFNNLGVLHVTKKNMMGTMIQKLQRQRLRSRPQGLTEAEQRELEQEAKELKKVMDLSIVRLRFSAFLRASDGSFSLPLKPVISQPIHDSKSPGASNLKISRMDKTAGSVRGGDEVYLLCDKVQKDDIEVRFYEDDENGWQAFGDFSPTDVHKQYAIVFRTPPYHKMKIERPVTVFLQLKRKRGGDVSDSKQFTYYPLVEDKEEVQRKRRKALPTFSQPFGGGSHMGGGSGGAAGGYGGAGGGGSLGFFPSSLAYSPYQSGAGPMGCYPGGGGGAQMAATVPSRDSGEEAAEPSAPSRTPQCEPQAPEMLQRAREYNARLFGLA
Sequence of Nuclear factor NF-kappa-B complex (Q04206 whole entry): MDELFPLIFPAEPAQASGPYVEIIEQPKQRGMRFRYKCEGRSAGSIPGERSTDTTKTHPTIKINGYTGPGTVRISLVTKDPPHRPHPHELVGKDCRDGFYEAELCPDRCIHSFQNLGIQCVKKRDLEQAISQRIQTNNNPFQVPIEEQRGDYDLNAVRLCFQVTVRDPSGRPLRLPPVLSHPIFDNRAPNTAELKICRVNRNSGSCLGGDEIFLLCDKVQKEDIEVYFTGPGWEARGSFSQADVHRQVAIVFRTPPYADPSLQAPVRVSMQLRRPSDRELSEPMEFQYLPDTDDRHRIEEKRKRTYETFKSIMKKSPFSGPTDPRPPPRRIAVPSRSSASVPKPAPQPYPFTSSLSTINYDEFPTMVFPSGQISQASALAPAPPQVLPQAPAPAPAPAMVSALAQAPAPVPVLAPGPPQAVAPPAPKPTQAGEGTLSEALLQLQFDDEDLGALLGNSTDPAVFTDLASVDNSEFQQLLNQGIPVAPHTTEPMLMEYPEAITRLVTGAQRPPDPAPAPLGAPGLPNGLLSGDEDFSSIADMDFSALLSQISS
Sequence of Beta-2 adrenergic receptor (P07550 whole entry): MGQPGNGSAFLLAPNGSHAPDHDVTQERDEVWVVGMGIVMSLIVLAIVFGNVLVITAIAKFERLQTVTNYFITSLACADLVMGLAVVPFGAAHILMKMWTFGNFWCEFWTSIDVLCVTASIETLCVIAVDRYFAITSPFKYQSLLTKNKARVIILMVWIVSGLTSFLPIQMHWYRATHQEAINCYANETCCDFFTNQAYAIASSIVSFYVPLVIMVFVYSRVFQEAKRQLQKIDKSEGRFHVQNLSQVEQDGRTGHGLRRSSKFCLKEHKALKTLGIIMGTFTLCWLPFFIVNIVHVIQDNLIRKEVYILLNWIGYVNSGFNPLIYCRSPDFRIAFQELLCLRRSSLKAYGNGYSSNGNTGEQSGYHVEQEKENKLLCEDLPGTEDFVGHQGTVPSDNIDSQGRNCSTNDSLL

Regarding `C[C@@H]1C[C@H]2[C@@H]3CCC4=CC(=O)C=C[C@]4(C)[C@@]3(F)[C@@H](O)C[C@]2(C)[C@@]1(O)C(=O)CO` [DEXAMETHASONE], the EC50 (as a rule, the concentration giving half of the maximal effect) in assay [1] came to 2.2 nM. The IC50 (as a rule, the concentration that gives 50% inhibition) in assay [2] worked out at 0.5 nM.
In the case of `CC(C)C[C@H](NC(=O)CNC(=O)c1cc(Cl)ccc1Cl)B1OC(=O)C(CC(=O)O)(CC(=O)O)O1` [IXAZOMIB CITRATE], the IC50 in assay [3] worked out at 3500 nM; in assay [4], 31 nM.
Turning to `c1cc(CN2CCCNCCNCCCNCC2)ccc1CN1CCCNCCNCCCNCC1` [PLERIXAFOR], the EC50 in assay [5] worked out at 1 nM.
Take `Cc1c(C(=O)Nc2ccc(N3C[C@@H](C)O[C@@H](C)C3)nc2)cccc1-c1ccc(OC(F)(F)F)cc1` [SONIDEGIB PHOSPHATE]: the IC50 against Protein smoothened [6] stood at 2.5 nM; against Protein smoothened [7], 1.3 nM.
